Reference: paper PMC8674134, “Safety and efficacy of avapritinib in advanced systemic mastocytosis: the phase 1 EXPLORER trial” (Nature Medicine, 2021)

Test system: advanced systemic mastocytosis (AdvSM)
Test: Centrally adjudicated response by mIWG-MRT-ECNM criteria (ORR, best response, time to response, C-finding improvement)
Type: in vivo, human
Source text: The primary endpoints were MTD, RP2D and assessment of safety. Secondary endpoints included the ORR based on measurable C-finding responses per mIWG-MRT-ECNM criteria, which require 12-week confirmation of response. Responses in C-findings were centrally adjudicated by a Response Adjudication Committee (RAC) comprising a subset of study investigators (see below for further details and a list of RAC members). ORR included: CR or CRh (including complete resolution of all C-findings, elimination of marrow mast cell aggregates and serum tryptase <20 ng ml^−1); PR (resolution of ≥1 C-finding and ≥50% reduction in marrow mast cells and serum tryptase); and clinical improvement (resolution of ≥1 C-finding).
The safety population included all enrolled patients and was used to report AEs and PROs (in those who completed the questionnaire). The dose-determining population included all patients in a cohort in part 1 who received ≥21 prescribed avapritinib doses in C1 and completed follow-up through C1, or experienced DLT. The determination of the MTD and RP2D were based on the dose-determining population. […] The AdvSM safety population was also used to report AEs and OS. […] The response-evaluable population was used to report adjudicated response rates and PFS. The PK population comprised all patients with sufficient plasma concentration–time data to reliably estimate the PK parameters of avapritinib.
ORR was defined as the proportion of patients with a confirmed best response of CR, CRh, PR or clinical improvement by mIWG-MRT-ECNM consensus criteria. Time to CR/CRh/PR was defined as the time from the start of treatment to the time a CR/CRh/PR by mIWG-MRT-ECNM was first met. DOR was defined as the time from first documented response to the date of first documented progressive disease/loss of response or death due to any cause, whichever occurred first. OS was defined as the time from the start of treatment to the date of death. PFS was defined as the time from the start of treatment to the date of first documented progressive disease or death due to any cause, whichever occurred first. Progressive disease was defined per mIWG-MRT-ECNM criteria as worsening of ≥1 baseline C-finding confirmed for at least 4 weeks, or progression to acute myeloid leukemia.
Primary ORR analysis was based on RAC-adjudicated responses in the response-evaluable population. ORR was estimated using frequency, percentage and two-sided 95% CIs based on the exact binomial distribution (Clopper–Pearson). Statistical testing on binomial proportion against a null of 28% was performed using one-sided α = 0.025. Wald test P value was presented. CR + CRh + PR rate was summarized similarly as ORR. Statistical testing on binomial proportion against a null of 17% was performed using one-sided α = 0.025.

[1] = 53 response-evaluable patients, mIWG-MRT-ECNM
[2] = Prior midostaurin exposure (n = 17)
[3] = of 2 patients with C-finding at baseline, response-evaluable population (n = 53)
[4] = of 18 patients with C-finding at baseline, response-evaluable population (n = 53)
[5] = response-evaluable population (n = 53)

In the case of `Cn1cc(-c2cc3c(N4CCN(c5ncc([C@@](C)(N)c6ccc(F)cc6)cn5)CC4)ncnn3c2)cn1` [avapritinib], the Clinical improvement rate (53 response-evaluable patients) is reported as 6%, the “Partial remission (PR) rate” value (53 response-evaluable patients) is reported as 34% and the “CR or CRh rate” value [1] is reported as 36%. For the same compound, the “Overall response rate (ORR; CR/CRh/PR/CI)” value [1] was 75%, the “Best response CI (clinical improvement)” value (ASM (n = 3)) was 0 n (%) and the “Best response CR” value (ASM (n = 3)) was 0 n (%). The “Best response CR or CRh” value (ASM (n = 3)) was 2 (67) n (%), the “Best response CRh” value (ASM (n = 3)) was 2 (67) n (%) and the “Best response NE (not evaluable)” value (ASM (n = 3)) was 0 n (%). For the same compound, the “Best response PD” value (ASM (n = 3)) was 0 n (%), the “Best response PR” value (ASM (n = 3)) was 1 (33) n (%) and the “Best response SD” value (ASM (n = 3)) was 0 n (%). For the same compound, the “ORR (CR + CRh + PR + CI)” value (ASM (n = 3)) was 3 (100) n (%), the “Best response CI (clinical improvement)” value (All AdvSM (n = 53)) was 3 (6) n (%) and the “Best response CR” value (All AdvSM (n = 53)) was 8 (15) n (%). The “Best response CR or CRh” value (All AdvSM (n = 53)) was 19 (36) n (%), the “Best response CRh” value (All AdvSM (n = 53)) was 11 (21) n (%) and the “Best response NE (not evaluable)” value (All AdvSM (n = 53)) was 1 (2) n (%). The “Best response PD” value (All AdvSM (n = 53)) was 0 n (%), the “Best response PR” value (All AdvSM (n = 53)) was 18 (34) n (%) and the “Best response SD” value (All AdvSM (n = 53)) was 12 (23) n (%). For the same compound, the “ORR (CR + CRh + PR + CI)” value (All AdvSM (n = 53)) was 40 (75) n (%), the “Best response CI (clinical improvement)” value (Any prior therapy (n = 32)) was 2 (6) n (%) and the “Best response CR” value (Any prior therapy (n = 32)) was 4 (13) n (%). The “Best response CR or CRh” value (Any prior therapy (n = 32)) was 9 (28) n (%), the “Best response CRh” value (Any prior therapy (n = 32)) was 5 (16) n (%) and the “Best response NE (not evaluable)” value (Any prior therapy (n = 32)) was 1 (3) n (%). For the same compound, the “Best response PD” value (Any prior therapy (n = 32)) was 0 n (%), the “Best response PR” value (Any prior therapy (n = 32)) was 11 (34) n (%) and the “Best response SD” value (Any prior therapy (n = 32)) was 9 (28) n (%). For the same compound, the “ORR (CR + CRh + PR + CI)” value (Any prior therapy (n = 32)) was 22 (69) n (%), the “Best response CI (clinical improvement)” value (MCL (n = 13)) was 2 (15) n (%) and the “Best response CR” value (MCL (n = 13)) was 3 (23) n (%). The “Best response CR or CRh” value (MCL (n = 13)) was 3 (23) n (%), the “Best response CRh” value (MCL (n = 13)) was 0 n (%) and the “Best response NE (not evaluable)” value (MCL (n = 13)) was 0 n (%). For the same compound, the “Best response PD” value (MCL (n = 13)) was 0 n (%), the “Best response PR” value (MCL (n = 13)) was 4 (31) n (%) and the “Best response SD” value (MCL (n = 13)) was 4 (31) n (%). For the same compound, the “ORR (CR + CRh + PR + CI)” value (MCL (n = 13)) was 9 (69) n (%), the “Best response CI (clinical improvement)” value (Midostaurin naïve (n = 36)) was 2 (6) n (%) and the “Best response CR” value (Midostaurin naïve (n = 36)) was 6 (17) n (%). The “Best response CR or CRh” value (Midostaurin naïve (n = 36)) was 16 (44) n (%), the “Best response CRh” value (Midostaurin naïve (n = 36)) was 10 (28) n (%) and the “Best response NE (not evaluable)” value (Midostaurin naïve (n = 36)) was 0 n (%). The “Best response PD” value (Midostaurin naïve (n = 36)) was 0 n (%), the “Best response PR” value (Midostaurin naïve (n = 36)) was 12 (33) n (%) and the “Best response SD” value (Midostaurin naïve (n = 36)) was 6 (17) n (%). The “ORR (CR + CRh + PR + CI)” value (Midostaurin naïve (n = 36)) was 30 (83) n (%), the “Best response CI (clinical improvement)” value (No prior therapy (n = 21)) was 1 (5) n (%) and the “Best response CR” value (No prior therapy (n = 21)) was 4 (19) n (%). For the same compound, the “Best response CR or CRh” value (No prior therapy (n = 21)) was 10 (48) n (%), the “Best response CRh” value (No prior therapy (n = 21)) was 6 (29) n (%) and the “Best response NE (not evaluable)” value (No prior therapy (n = 21)) was 0 n (%). For the same compound, the “Best response PD” value (No prior therapy (n = 21)) was 0 n (%), the “Best response PR” value (No prior therapy (n = 21)) was 7 (33) n (%) and the “Best response SD” value (No prior therapy (n = 21)) was 3 (14) n (%). For the same compound, the “ORR (CR + CRh + PR + CI)” value (No prior therapy (n = 21)) was 18 (86) n (%), the “Best response CI (clinical improvement)” value [2] was 1 (6) n (%) and the “Best response CR” value [2] was 2 (12) n (%). For the same compound, the “Best response CR or CRh” value [2] was 3 (18) n (%), the “Best response CRh” value [2] was 1 (6) n (%) and the “Best response NE (not evaluable)” value [2] was 1 (6) n (%). For the same compound, the “Best response PD” value [2] was 0 n (%), the “Best response PR” value [2] was 6 (35) n (%) and the “Best response SD” value [2] was 6 (35) n (%). The “ORR (CR + CRh + PR + CI)” value [2] was 10 (59) n (%), the “Best response CI (clinical improvement)” value (SM-AHN (n = 37)) was 1 (3) n (%) and the “Best response CR” value (SM-AHN (n = 37)) was 5 (14) n (%). The “Best response CR or CRh” value (SM-AHN (n = 37)) was 14 (38) n (%), the “Best response CRh” value (SM-AHN (n = 37)) was 9 (24) n (%) and the “Best response NE (not evaluable)” value (SM-AHN (n = 37)) was 1 (3) n (%). The “Best response PD” value (SM-AHN (n = 37)) was 0 n (%), the “Best response PR” value (SM-AHN (n = 37)) was 13 (35) n (%) and the “Best response SD” value (SM-AHN (n = 37)) was 8 (22) n (%). For the same compound, the “ORR (CR + CRh + PR + CI)” value (SM-AHN (n = 37)) was 28 (76) n (%), the “Median time to achieve CR/CRh” value (all starting doses) was 9 months and the “Median time to achieve PR or better (CR/CRh/PR)” value (all starting doses, range, 2–27 months) was 2 months. The CR rate (midostaurin-naïve patients (6/36)) was 17%, the CRh rate (midostaurin-naïve patients (10/36)) was 28% and the CR/CRh rate (midostaurin-naïve patients (16/36)) was 44%. For the same compound, the ORR (midostaurin-naïve patients (30/36)) was 83%, the “Patients with clinical improvement in C-finding: thrombocytopenia, transfusion dependent” value (of 1 patient with C-finding at baseline, response-evaluable population (n = 53)) was 0 (0) n (%) and the “Patients with clinical improvement in C-finding: anemia, transfusion dependent” value [3] was 1 (50) n (%). The “Patients with clinical improvement in C-finding: pleural effusions” value [3] was 2 (100) n (%), the “Patients with clinical improvement in C-finding: neutropenia” value (of 3 patients with C-finding at baseline, response-evaluable population (n = 53)) was 0 (0) n (%) and the “Patients with clinical improvement in C-finding: direct bilirubin >1.5 × ULN” value (of 6 patients with C-finding at baseline, response-evaluable population (n = 53)) was 1 (17) n (%). The “Patients with clinical improvement in C-finding: hypoalbuminemia” value (of 7 patients with C-finding at baseline, response-evaluable population (n = 53)) was 4 (57) n (%), the “Patients with clinical improvement in C-finding: ascites” value (of 10 patients with C-finding at baseline, response-evaluable population (n = 53)) was 4 (40) n (%) and the “Patients with clinical improvement in C-finding: anemia, transfusion independent” value (of 15 patients with C-finding at baseline, response-evaluable population (n = 53)) was 3 (20) n (%). The “Patients with clinical improvement in C-finding: ALP >2.5 × ULN” value [4] was 12 (67) n (%), the “Patients with clinical improvement in C-finding: thrombocytopenia, transfusion independent” value [4] was 4 (22) n (%) and the “Patients with clinical improvement in C-finding: splenomegaly ≥5 cm” value (of 28 patients with C-finding at baseline, response-evaluable population (n = 53)) was 24 (86) n (%). For the same compound, the ORR (patients with co-mutations in S/A/R genes) was 74%, the ORR (patients with prior midostaurin exposure (10/17)) was 59% and the ORR (patients without S/A/R co-mutations) was 77%. It also gave a CRh rate (prior midostaurin exposure (1/17)) of 6%, a CR rate (prior midostaurin exposure (2/17)) of 12% and a CR/CRh rate (prior midostaurin exposure (3/17)) of 18%. The “Median time to clinical improvement: ALP >2.5 × ULN” value [5] was 2.9 months, the “Median time to clinical improvement: anemia, transfusion dependent” value [5] was 0.3 months and the “Median time to clinical improvement: anemia, transfusion independent” value [5] was 3.7 months. For the same compound, the “Median time to clinical improvement: ascites” value [5] was 7.4 months, the “Median time to clinical improvement: direct bilirubin >1.5 × ULN” value [5] was 8.3 months and the “Median time to clinical improvement: hypoalbuminemia” value [5] was 3.3 months. The “Median time to clinical improvement: pleural effusions” value [5] was 1.9 months, the “Median time to clinical improvement: splenomegaly ≥5 cm” value [5] was 1.9 months and the “Median time to clinical improvement: thrombocytopenia, transfusion independent” value [5] was 3.1 months. The “Median time to PR or better (CR/CRh/PR)” value (starting doses of 200, 300 or 400 mg (≥200 mg QD)) was 2 months.
